Data from PubChem BioAssay (NCI).
Where “and” joins values, the source holds several entries; their conditions need not be identical. Identical values can stand only once.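 The compound was tested at five concentrations on cells cultured in 96-well plates, with a 48-hour exposure period. GI50 = concentration required for 50% inhibition of growth. TGI: total growth inhibition.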

Columns and labels:
Assay in all cases: NCI tumour cell line growth inhibition, 48 h
DLD-1 colon = tested on: DLD-1 colon
DMS 273 small cell lung = tested on: DMS 273 small cell lung
KM20L2 colon = tested on: KM20L2 colon
P388 leukemia = tested on: P388 leukemia
P388/ADR leukemia = tested on: P388/ADR leukemia
SN12K1 renal = tested on: SN12K1 renal
SNB-78 CNS = tested on: SNB-78 CNS
LXFL 529 NSCLC = tested on: LXFL 529 NSCLC
M19-MEL melanoma = tested on: M19-MEL melanoma
RXF-631 renal = tested on: RXF-631 renal

| SMILES | TGI (DLD-1 colon) | TGI (DMS 273 small cell lung) | TGI (KM20L2 colon) | TGI (P388 leukemia) | TGI (P388/ADR leukemia) | TGI (SN12K1 renal) | TGI (SNB-78 CNS) | TGI (LXFL 529 NSCLC) | TGI (M19-MEL melanoma) | TGI (RXF-631 renal) | GI50 (DLD-1 colon) | GI50 (KM20L2 colon) | GI50 (LXFL 529 NSCLC) | GI50 (M19-MEL melanoma) | GI50 (P388 leukemia) | GI50 (P388/ADR leukemia) | GI50 (SN12K1 renal) | GI50 (SNB-78 CNS) |
| --- | --- | --- | --- | --- | --- | --- | --- | --- | --- | --- | --- | --- | --- | --- | --- | --- | --- | --- |
| COc1cccc2c1C(=O)c1c(O)c3c(c(O)c1C2=O)C[C@](O)(C(=O)CO)CC3OC1CC(N)C(OC2CCCCO2)C(C)O1 (stereo not given in full) | 12.5 µM | 1.22 µM | 4.84 µM | 0.233 µM | > 100 µM | 0.879 µM | 6.02 µM |  |  |  |  |  |  |  |  |  |  |  |
| O=c1c2cc(Cl)ccc2n2nnc3ccc(NCCNCCO)c1c32 | 5.76 µM | 2.45 µM | 2.72 µM |  |  |  | 9.39 µM | 3.51 µM | 3.28 µM | 3.05 µM |  |  |  |  |  |  |  |  |
| CCC[CH2][Ge]([CH2]CCC)([CH2]CCC)[O]C(=O)CCl | 15.7 µM |  | 23.5 µM |  |  |  |  | 17.1 µM | 23.2 µM |  | 0.122 µM | 2.95 µM | 1.98 µM | 11.1 µM |  |  |  |  |
| C=C1C(=O)OC2C1CC1OC2C(C)CCC/C(C)=C\CCC1(C)O (stereo not given) | 64.8 µM | 53.1 µM | 81.9 µM | 42.4 µM | 58.2 µM | 40.2 µM | 42.9 µM |  | 29 µM |  |  |  |  |  |  |  |  |  |
| CC1Oc2c(c(O)cc3oc(=O)cc(-c4ccccc4)c23)C(=O)C1C (stereo not given) | > 100 µM | > 100 µM | > 100 µM |  |  |  | > 100 µM | > 100 µM |  | > 100 µM |  |  |  |  |  |  |  |  |
| COc1ccc(CNc2cnc3cc(N)ccc3n2)cc1OC | > 100 µM | > 100 µM |  |  |  |  |  |  | > 100 µM |  |  |  |  |  |  |  |  |  |
| O.O=[Se](=O)(O)O.[NH-]C1CCCCC1[NH-].[Pt+2] (stereo not given) | > 100 µM |  | > 100 µM | 30.9 µM | > 100 µM | > 100 µM | > 100 µM |  | > 75.6 µM |  | 19 µM |  |  |  | 0.433 µM | 7.22 µM | > 30.4 µM | 48.4 µM |
| COc1ccc(/C(Cl)=C(\C=O)c2ccc(Cl)cc2)cc1 | > 100 µM | > 100 µM | 33.2 µM |  |  |  | > 100 µM | 51 µM | 75.4 µM | 47.6 µM |  |  |  |  |  |  |  |  |
| O=C(c1ccccc1)c1ccc2c(c1)N=C(c1ccc(Cl)c(Cl)c1)CC(c1ccc3ccccc3c1)N2 (stereo not given) | > 100 µM | > 100 µM | > 100 µM |  |  |  | > 100 µM | > 100 µM | > 100 µM | > 100 µM |  |  |  |  |  |  |  |  |
| C#Cc1ccccc1C(=O)OC | > 100 µM | > 100 µM | > 100 µM |  |  |  |  |  |  |  |  |  |  |  |  |  |  |  |
| Nc1ncnc2c(C3OC(CO)C(O)C3O)c[nH]c12 (stereo not given) | 0.0413 µM | 0.116 µM | 1.1 µM |  |  |  | 1.12 µM | 0.189 µM and 0.153 µM | 0.196 µM and 0.423 µM | 0.56 µM and 0.533 µM |  |  |  |  |  |  |  |  |
